Measured values published in PMC9348534 (Advanced Pharmaceutical Bulletin, 2021).
Values after ≈ are worked out from the molar mass of the structure shown. Where two headings read alike, the source gives them in different places.

What was measured:
K562 cells [1] = experiment: Cell viability assay (trypan blue exclusion or MTT); format: cell-based, human
Description: (§1) MCF-7/HER2 and MCF-7/EV are HER2 and empty vector-transfected MCF-7 cells obtained from Prof. Yoshio Inouye (Department of Surgery, Toho University School of Medicine, Japan) through Prof. Masashi Kawaichi (Laboratory of Gene Function in Animals, NAIST, Japan). The cells of 4T1, NIH-3T3, and T47D were kindly provided by Prof. Masashi Kawaichi (Laboratory of Gene Function in Animals, NAIST, Japan). K652 cells are the collection from the Laboratory of Tumor Cell Biology, Nara Institute of Science and Technology, Japan. HCC1954 and Caco2 cell lines were given by Dr. dr. Muhammad Hasan Bashari (Faculty of Medicine, Universitas Padjajaran, Indonesia). WiDr cell line was obtained from the Faculty of Medicine, Public Health, and Nursing Universitas Gadjah Mada, Indonesia. […]
(§2) Cells were grown in 24 or 96-well microplate and then cultured for 24 h. […] After treatment, viable cells were enumerated using the trypan blue exclusion or quantified under MTT assay. […]
(§3) Molecular docking results were validated by determining the RMSD value of conformation bearing the lowest docking score representing the ∆G (kkal/mol). […] Cytotoxic potencies against several cell lines were statistically analyzed based on the IC50 values through linear regression with a P value of […].

HCC1954 cells = experiment: as above; format: cell-based; conditions: Homo sapiens; HCC1954, 24 hours treatment; read-out: IC 50 value
Description: (§4) MCF-7/HER2 and MCF-7/EV are HER2 and empty vector-transfected MCF-7 cells obtained from Prof. Yoshio Inouye (Department of Surgery, Toho University School of Medicine, Japan) through Prof. Masashi Kawaichi (Laboratory of Gene Function in Animals, NAIST, Japan). The cells of 4T1, NIH-3T3, and T47D were kindly provided by Prof. Masashi Kawaichi (Laboratory of Gene Function in Animals, NAIST, Japan). K652 cells are the collection from the Laboratory of Tumor Cell Biology, Nara Institute of Science and Technology, Japan. HCC1954 and Caco2 cell lines were given by Dr. dr. Muhammad Hasan Bashari (Faculty of Medicine, Universitas Padjajaran, Indonesia). WiDr cell line was obtained from the Faculty of Medicine, Public Health, and Nursing Universitas Gadjah Mada, Indonesia. Briefly, MCF-7/HER2, MCF-7, NIH-3T3, T47D, MCF-7/EV, and 4T1 cells were cultured in Dulbecco’s Modified Eagles Medium (DMEM) high glucose (Gibco, USA), whereas HCC1954, Caco2, WiDr, K562 cells were grown in Rosewell Park Memorial Institute (RPMI) Medium. Both were supplemented with 10% (v/v) fetal bovine serum (Gibco, USA), HEPES (Sigma, USA), sodium bicarbonate (Sigma, USA), 150 IU/mL penicillin and 150 µg/mL streptomycin (Gibco) and 1.25 µg/mL amphotericin B (Gibco, USA). The cells were maintained at 37 °C with 5% CO2 in a humidified atmosphere.
(§5) Cells were grown in 24 or 96-well microplate and then cultured for 24 h. Subsequently, cells were treated with PGV-1 or CCA-1.1 at concentration series up to 10 µM, except for NIH-3T3 up to 100 µM and incubated for 24 hours. Untreated cells were used as control. After treatment, viable cells were enumerated using the trypan blue exclusion or quantified under MTT assay. The viable cells were represented as % cell viability vs. concentration of the sample, and the IC50 value or the concentration that inhibits 50% of cell growth was calculated.
(§6) Molecular docking results were validated by determining the RMSD value of conformation bearing the lowest docking score representing the ∆G (kkal/mol). The validity of the molecular docking method was represented as RMSD value < 2. Cytotoxic potencies against several cell lines were statistically analyzed based on the IC50 values through linear regression with a P value of […].

4T1 cells [2] = experiment: as above; format: cell-based; conditions: Mus musculus; 4T1, 24 hours treatment; read-out: IC 50 value
Description: as §4, §5, §6

WiDr cells = experiment: as above; format: cell-based; conditions: Homo sapiens, 24 hours treatment, read-out: IC 50 value
Description: as §4, §5, §6

MCF-7 cells [3] = experiment: as above; format: cell-based; conditions: Homo sapiens, MCF7; MCF-7, 24 hours treatment; read-out: IC 50 value
Description: as §4, §5, §6

Caco2 cells = experiment: as above; format: cell-based; conditions: Homo sapiens, Caco-2; Caco2, 24 hours treatment; read-out: IC 50 value
Description: as §4, §5, §6

MCF-7/EV cells = experiment: as above; format: cell-based; conditions: Homo sapiens, MCF7, 24 hours treatment, read-out: IC 50 value
Description: as §4, §5, §6

MCF-7/HER2 cells = experiment: as above; format: cell-based; conditions: Homo sapiens, MCF7; MCF-7/HER2, 24 hours treatment; read-out: IC 50 value
Description: as §4, §5, §6

T47D cells = experiment: as above; format: cell-based; conditions: Homo sapiens, 24 hours treatment, read-out: IC 50 value
Description: as §4, §5, §6

NIH-3T3 cells = experiment: as above; format: cell-based; conditions: Mus musculus, NIH3T3; NIH-3T3 (non-cancerous), concentrations up to 100 µM, 24 hours; read-out: IC 50 value
Description: as §4, §5, §6

[4] = system: several cancer cell lines; experiment: Cytotoxic assay on several cancer cell lines (summary statement); format: cell-based; conditions: several cancer cell lines (Table 3)
Description: as §1, §2, §3

[5] = Dissolution and stability test in buffer solution; format: physicochemical; conditions: for Appearance of solution after storage for 48 hours: 100 µM, room temperature; for Absorbance change (stability) up to 3 hours: aqueous solution, light exposure, ambient temperature, especially pH 1.0
Method: Each solution in the respected buffer was then evaluated for its stability at ambient temperature and light exposure. It measured the absorbance change at 428, 416, and 404 nm, subsequently over a time-course using a UV-1800 spectrophotometer (Shimadzu, Japan).

K562 cells [6] = system: K562 cells; parameters: method as in PMID 31619723; conditions: read-out: IC 50 value; cited from earlier work
4T1 cells [7] = conditions: read-out: IC 50 value; cited from earlier work
MCF-7 cells [8] = system: MCF-7 cells; parameters: method as in PMID 31548601; conditions: read-out: IC 50 value; cited from earlier work
[9] = aqueous; cited from earlier work

| Structure (SMILES) | IC50 (HCC1954 cells) | IC50 (WiDr cells) | IC50 (Caco2 cells) | IC50 (MCF-7/EV cells) | IC50 (MCF-7/HER2 cells) | IC50 (T47D cells) | IC50 (NIH-3T3 cells) | IC50 [4] | Appearance of solution after storage for 48 hours [5] | Absorbance change (stability) up to 3 hours [5] | further results |
| --- | --- | --- | --- | --- | --- | --- | --- | --- | --- | --- | --- |
| Cc1cc(C=C2CCC(=Cc3cc(C)c(O)c(C)c3)C2O)cc(C)c1O (centres unmarked) [CCA-1.1, 2,5-bis(4-hydroxy-3,5-dimethylbenzylidene)cyclopentanol] | 6 µM | 5 µM | 5 µM | 8 µM | 5 µM | 7 µM | > 50 µM | < 10 µM | still looked clear | unchanged absorbance up to 3 hours | IC50 (K562 cells [1]; Homo sapiens, K562, 24 hours treatment, read-out: IC 50 value): 0.293 µM; Cytotoxic potency relative to PGV-1 (K562 cells [1]; K562): twice stronger than PGV-1; IC50 (4T1 cells [2]): 3 µM; IC50 (MCF-7 cells [3]): < 10 µM; Solubility compared at a concentration of 100 µM ([5]; distilled water, buffer pH 1.0 and pH 7.4, 100 µM): more soluble than PGV-1 and curcumin; Solubility relative to PGV-1 ([5]; pH 1.0, 7.4, distilled water, observations up to 48 hours): two times more soluble than PGV-1 |
| Cc1cc(C=C2CCC(=Cc3cc(C)c(O)c(C)c3)C2=O)cc(C)c1O [PGV-1, 2,5-bis(4-hydroxy-3,5-dimethylbenzylidene)cyclopentanone] | 3 µM | > 10 µM | 12 µM | 8 µM | 7 µM | 8 µM | > 50 µM | < 10 µM | appeared with some sediment or crystal | tended to decrease the absorbance at 3 hours | IC50 (K562 cells [6]): 0.45 µM; IC50 (4T1 cells [7]): 4 µM; Appearance of solution at 50 µM ([5]; 50 µM (data not shown)): appeared clear; IC50 (MCF-7 cells [8]): 6 µM |
| COc1cc(C=CC(=O)CC(=O)C=Cc2ccc(O)c(OC)c2)ccc1O [curcumin, 1,7-bis(4-hydroxy-3-methoxyphenyl)-1,6-heptadiene-3,5-dione] | – | – | – | – | – | – | – | – | – | tended to decrease the absorbance at 3 hours | Solubility [9]: 40 µM (≈ 14.7 µg/mL) |
